Here are results for five compounds from US10265318B2, “Medicinal drug with activity against gram positive bacteria, mycobacteria and fungi” (priority 2015, dated 2019).

Molecules are shown by their SMILES.

One experiment concerns MSSA strain ATCC 29213. The experiment can be described thus: MIC, broth macrodilution (CLSI). The format is cell-based, S. aureus. The settings on record: planktonic, inoculum 10^5 cfu/mL.
The test system of a further experiment is bacteria and fungi. Kind of experiment: Antimicrobial activity, overall comparison of the substances. The format is cell-based.
In the next experiment the test system is VRSA strain VT-V-18. Kind of experiment: MIC, broth macrodilution (CLSI). As to conditions: planktonic, inoculum 10^5 cfu/mL.
The next experiment concerns VRSA strain VT-E-25. Kind of experiment: MIC, broth macrodilution (CLSI). The settings on record: planktonic, inoculum 10^5 cfu/mL.
The test system of the next experiment is VRSA strain VT-A-199. Kind of experiment: MIC, broth macrodilution (CLSI). As to conditions: planktonic, inoculum 10^5 cfu/mL.
Experiment [1] concerns biofilms of S. aureus ATCC 29213. The experiment can be described thus: 24-hour action upon 24-hour biofilms in 96-well plates, CFU count. The settings on record: S. aureus ATCC 29213 biofilm.
Text: (§1) Biofilms used in testing were produced by 24-hour cultivation in 96-well plates.
Experiment [2] relates to biofilms of S. aureus MRSA 24/31. Described as above. The settings on record: S. aureus MRSA 24/31 biofilm.
Text: as §1
The subject of experiment [3] is biofilms of S. aureus MRSA 201/010. Described as above. The settings on record: S. aureus MRSA 201/010 biofilm.
Text: as §1
A further experiment relates to S. aureus MRSA 24/31. Kind of experiment: MIC, broth microdilution or agar dilution (CLSI). Type of experiment: cell-based, Staphylococcus aureus.
The test system of another experiment is S. aureus MRSA 201/010. The experiment can be described thus: MIC, broth microdilution or agar dilution (CLSI). Type of experiment: cell-based, Staphylococcus aureus. In general terms: Broth dilution looks for growth in wells or tubes with falling amounts of substance.
Experiment [4] concerns Candida albicans ATCC 10231. The experiment can be described thus: MIC, broth microdilution or agar dilution (CLSI). Type of experiment: cell-based. The settings on record: C. albicans ATCC 10231.
In experiment [5] the test system is Aspergillus fumigatus ATCC 204305. Kind of experiment: MIC, broth microdilution or agar dilution (CLSI). The format is cell-based. As to conditions: A. fumigatus ATCC 204305.

Experimental for VRSA strain VT-A-199: (§2) The MICs were determined using a broth macrodilution method with cation-adjusted Mueller-Hinton broth II (Becton Dickinson) at standard inoculum (10^5 cfu/mL) following the CLSI recommendations.
Experimental for VRSA strain VT-E-25: as §2
Experimental for VRSA strain VT-V-18: as §2

With `O=C1NC(=O)C(=Cc2cc(Br)cc(Br)c2O)C(=O)N1` [Compound 1, 5-(3,5-dibromo-2-hydroxybenzylidene) perhydropyrimidine-2.4,6-trione], the “MSSA strain MIC, ATCC 29213” value with MSSA strain ATCC 29213 worked out at 0.7 µg/mL. Also, the “antimicrobial activity, comparison among the inventive substances” value (shortened to “antimicrobial activity”) in the experiment on bacteria and fungi was “best activity”. In addition, the “VRSA strain MIC, VT-V-18” value with VRSA strain VT-V-18 worked out at 0.7 µg/mL. In addition, the “VRSA strain MIC, VT-E-25” value with VRSA strain VT-E-25 amounted to 1.5 μg/ml. In addition, the “VRSA strain MIC, VT-A-199” value with VRSA strain VT-A-199 was found to be 0.07 µg/mL. For the same compound, the “decrease of the number of CFU in biofilm” value in experiment [1] (24-hour action), in experiment [2] (24-hour action) and in [3] (24-hour action) was 10,000 times throughout.

Turning to `COc1ccc(CN2C(=O)NC(=O)C(=Cc3cc(Br)cc(Br)c3O)C2=O)cc1` [Compound 15, 1-(4-methoxybenzyl)-5-(3,5-dibromo-2-hydroxybenzylidene) perhydropyrimidine-2.4,6-trione], in the experiment with bacteria and fungi, the “antimicrobial activity” value is listed as “best activity”.

Take `O=Cc1cc(Br)cc(Br)c1[O-].[Na+]` [Compound 17, 2-formyl-4,6-dibromo sodium phenolate]: the “antimicrobial activity” value with bacteria and fungi is reported as “best activity”.

With `O=Cc1cc(Br)cc([N+](=O)[O-])c1[O-].[K+]` [Compound 19, 2-formyl-4-bromo-6-nitro potassium phenolate], in the experiment with bacteria and fungi, the “antimicrobial activity” value was “best activity”.

On to `CC1(C)SC2C(NC(=O)[C@H](N)c3ccccc3)C(=O)N2C1C(=O)O` (stereo partly drawn) [ampicillin, 6-[[(2R)-aminophenylacetyl]amino]-3,3-dimethyl-7-oxo-4-thia-1-azabicyclo[3.2.0]heptane-2carboxylic acid], for which the MIC entry (against S. aureus MRSA 24/31; in the experiment on S. aureus MRSA 201/010; in [4]; in experiment [5]) was “no effect” in each case. Moreover, the “decrease of the number of CFU in biofilm” value in experiment [1] (10 mg/l) came to 10 times. The “effect on the number of CFU in biofilm” value in experiment [2] (10 mg/l) and in experiment [3] (10 mg/l) was “no effect whatsoever” throughout.
